Three compounds from ChEMBL document CHEMBL5523719, “Structure-activity relationship study of new carbazole sulfonamide derivatives as anticancer agents with dual-target mechanism” (Eur J Med Chem, 2024) can be followed below.

Activity calls are given as the source filed them. The calls are words filed in the database; no cut-off is given here.

The test system of one data set is MDA-MB-231. The experiment in a line: Antiproliferation activity against human MDA-MB-231 cells measured after 72 hrs incubation by MTT assay. It is filed as functional, cell-based. To be noted: MDA-MB-231, 72 h. (Tetrazolium assays rely on reduction of a dye to a coloured formazan, in cell work by metabolically active cells.)
Another data set deals with MIA PaCa-2. Briefly: Antiproliferation activity against human MIA PaCa-2 cells measured after 72 hrs incubation by MTT assay. It is filed as functional, cell-based. To be noted: MIA PaCa-2, 72 h.
For another data set, the system named is NCI-H460. Briefly: Antiproliferation activity against human NCI-H460 cells measured after 72 hrs incubation by MTT assay. In kind it is functional, cell-based. The conditions noted are these: NCI-H460, 72 h.
A further data set relates to KB. Briefly: Antiproliferation activity against human KB cells measured after 72 hrs incubation by MTT assay. In kind it is functional, cell-based.
Another data set concerns L02. Briefly: Antiproliferation activity against human L02 cells measured after 72 hrs incubation by MTT assay. It is filed as functional, cell-based. The conditions noted are these: L02, 72 h.
Data set [1] deals with MCF7. Briefly: In vivo antitumor activity against human MCF7 cells xenografted in BALB/c mouse assessed as inhibition of tumor growth treated iv every other day for 26 days. The conditions noted are these: time 26.0 day. In kind it is functional, organism-based.
The subject of data set [2] is MCF7. Briefly: In vivo antitumor activity against human MCF7 cells xenografted in BALB/c mouse assessed as decrease in tumor volume treated at 5 mg/kg, iv every other day for 26 days relative to control. It is filed as functional. To be noted: MCF7, 624 h, time 26 day. In general terms: In xenograft studies the graft and the host belong to different species.
Data set [3] concerns MCF7. The experiment in a line: In vivo antitumor activity against human MCF7 cells xenografted in BALB/c mouse assessed as decrease in tumor volume treated at 10 mg/kg, iv every other day for 26 days relative to control. In kind it is functional. The conditions noted are these: MCF7, 624 h, time 26 day.
Data set [4] can be described thus: Toxicity in BALB/c mouse xenografted with human MCF7 cells assessed as lesions in heart at 10 mg/kg, iv every other day for 26 days by H and E staining based assay. In kind it is organism-based. To be noted: in vivo, 624 h, time 26 day.
A short description of data set [5]: Toxicity in BALB/c mouse xenografted with human MCF7 cells assessed as lesions in liver at 10 mg/kg, iv every other day for 26 days by H and E staining based assay. In kind it is organism-based. To be noted: in vivo, 624 h, time 26 day.
The nature of data set [6]: Toxicity in BALB/c mouse xenografted with human MCF7 cells assessed as lesions in spleen at 10 mg/kg, iv every other day for 26 days by H and E staining based assay. In kind it is organism-based. The conditions noted are these: in vivo, 624 h, time 26 day.
Data set [7] is described as follows: Toxicity in BALB/c mouse xenografted with human MCF7 cells assessed as lesions in lung at 10 mg/kg, iv every other day for 26 days by H and E staining based assay. It is filed as organism-based. To be noted: in vivo, 624 h, time 26 day.
Data set [8] in a line: Toxicity in BALB/c mouse xenografted with human MCF7 cells assessed as lesions in kidney at 10 mg/kg, iv every other day for 26 days by H and E staining based assay. In kind it is organism-based. To be noted: in vivo, 624 h, time 26 day.
Data set [9] concerns MCF7. The experiment in a line: In vivo antitumor activity against human MCF7 cells xenografted in BALB/c mouse assessed as inhibition of Ki-67 expression treated at 10 mg/kg, iv every other day for 26 days. It is filed as functional, organism-based. The conditions noted are these: time 26.0 day.
For data set [10], the system named is MCF7. Briefly: In vivo antitumor activity against human MCF7 cells xenografted in BALB/c mouse assessed as increase in cleaved caspase-3 treated at 10 mg/kg, iv every other day for 26 days. It is filed as functional, organism-based. To be noted: time 26.0 day.
Data set [11] relates to MCF7. The experiment in a line: In vivo antitumor activity against human MCF7 cells xenografted in BALB/c mouse assessed as decrease in tumor volume treated at 2.5 mg/kg, iv every other day for 26 days relative to control. In kind it is functional. To be noted: MCF7, 624 h, time 26 day.
Data set [12] in a line: Toxicity in BALB/c mouse xenografted with human MCF7 cells assessed as lesions in heart at 5 mg/kg, iv every other day for 26 days by H and E staining based assay. It is filed as organism-based. The conditions noted are these: in vivo, 624 h, time 26 day.
The nature of data set [13]: Toxicity in BALB/c mouse xenografted with human MCF7 cells assessed as lesions in liver at 5 mg/kg, iv every other day for 26 days by H and E staining based assay. In kind it is organism-based. To be noted: in vivo, 624 h, time 26 day.
Data set [14] can be described thus: Toxicity in BALB/c mouse xenografted with human MCF7 cells assessed as lesions in spleen at 5 mg/kg, iv every other day for 26 days by H and E staining based assay. In kind it is organism-based. To be noted: in vivo, 624 h, time 26 day.
Data set [15] can be described thus: Toxicity in BALB/c mouse xenografted with human MCF7 cells assessed as lesions in lung at 5 mg/kg, iv every other day for 26 days by H and E staining based assay. It is filed as organism-based. To be noted: in vivo, 624 h, time 26 day.
Data set [16] is described as follows: Toxicity in BALB/c mouse xenografted with human MCF7 cells assessed as lesions in kidney at 5 mg/kg, iv every other day for 26 days by H and E staining based assay. In kind it is organism-based. To be noted: in vivo, 624 h, time 26 day.
The subject of data set [17] is MCF7. The experiment in a line: In vivo antitumor activity against human MCF7 cells xenografted in BALB/c mouse assessed as inhibition of Ki-67 expression treated at 5 mg/kg, iv every other day for 26 days. In kind it is functional, organism-based. The conditions noted are these: time 26.0 day.
Data set [18] relates to MCF7. The experiment in a line: In vivo antitumor activity against human MCF7 cells xenografted in BALB/c mouse assessed as increase in cleaved caspase-3 treated at 5 mg/kg, iv every other day for 26 days. It is filed as functional, organism-based. The conditions noted are these: time 26.0 day.
The next data set relates to HepG2. The experiment in a line: In vivo antitumor activity against human HepG2 cells xenografted in mouse assessed as inhibition of tumor growth treated at 50 mg/kg, iv every other day for 22 days relative to control. The conditions noted are these: HepG2, 528 h, time 22 day, read-out: TGI. It is filed as functional.
A short description of data set [19]: Toxicity in mouse xenografted with human HepG2 cells assessed as body weight change at 10 to 20 mg/kg, iv every other day for 22 days. The conditions noted are these: in vivo, 528 h, dose 10-20 mg/kg, time 22 day. It is filed as organism-based.
The test system of data set [20] is MCF7. Briefly: In vivo antitumor activity against human MCF7 cells xenografted in BALB/c mouse assessed as decrease in tumor volume treated at 50 mg/kg, iv every other day for 26 days relative to control. The conditions noted are these: MCF7, 624 h, time 26 day. In kind it is functional.
In data set [21] the test system is MCF7. The experiment in a line: In vivo antitumor activity against human MCF7 cells xenografted in BALB/c mouse assessed as inhibition of Ki-67 expression treated at 50 mg/kg, iv every other day for 26 days. It is filed as functional, organism-based. The conditions noted are these: time 26.0 day.
In data set [22] the test system is MCF7. The experiment in a line: In vivo antitumor activity against human MCF7 cells xenografted in BALB/c mouse assessed as increase in cleaved caspase-3 treated at 50 mg/kg, iv every other day for 26 days. The conditions noted are these: time 26.0 day. It is filed as functional, organism-based.

In general, IC50 refers to the concentration needed to halve the response being measured. The low end stands for higher potency, the high end for lower potency. As to `COc1cc(NS(=O)(=O)c2ccc3c(c2)c2ccc(OP(=O)([O-])[O-])cc2n3C)c(OC)cc1Cl.[Na+].[Na+]`, the IC50 amounted to 0.00572 µM in the data set on MDA-MB-231; 0.0144 µM in the data set on MIA PaCa-2; 0.0185 µM with NCI-H460; 0.0362 µM with KB; 0.0553 µM in the data set on L02. The TGI result with MCF7 [1] is “Dose-Dependent Effect”. For the same compound, the inhibition in vivo at 5 mg/kg in the data set on MCF7 [2] came out at 56%. In addition, the inhibition in vivo at 10 mg/kg in the data set on MCF7 [3] is 73%. Moreover, the Activity entry in data set [4], in data set [5], in [6], in [7] and in data set [8] was “Non-Toxic” in each case. For the same compound, the outcome in the data set with MCF7 [9] and in the data set on MCF7 [10] was Active.

Consider `COc1cc(NS(=O)(=O)c2ccc3c(c2)c2ccc(NC(=O)[C@@H](N)C(C)C)cc2n3C)c(OC)cc1Cl.Cl`, for which the half-maximal inhibitory concentration (IC50) came to 0.102 µM in the data set on MDA-MB-231; 0.0721 µM in the data set with MIA PaCa-2; 0.0416 µM in the data set with NCI-H460; 0.023 µM in the data set on KB; 0.0432 µM in the data set with L02. Further, in the data set on MCF7 [1], the TGI result is “Dose-Dependent Effect”. In addition, the inhibition in vivo at 2.5 mg/kg in the data set with MCF7 [11] came to 38%. The inhibition in vivo at 5 mg/kg in the data set with MCF7 [2] worked out at 66%. Also, the Activity entry in data set [12], in [13], in data set [14], in data set [15] and in data set [16] was “Non-Toxic” in each case. Moreover, the outcome with MCF7 [17] and with MCF7 [18] was Active.

As to `COc1ccc(/C=C\c2cc(OC)c(OC)c(OC)c2)cc1OP(=O)([O-])[O-].[Na+].[Na+]` [FOSBRETABULIN DISODIUM], the results for the inhibition in vivo at 50 mg/kg with HepG2 and with MCF7 [20] were 72% and 77%, respectively. In addition, the Activity entry in [19] is recorded as “Non-Toxic”. Besides, the IC50 in the data set on MDA-MB-231 was found to be 0.00366 µM; in the data set with MIA PaCa-2, 0.00526 µM; in the data set on NCI-H460 it was 0.00029 µM; in the data set with KB, 0.00066 µM; in the data set with L02, 0.14 µM. The outcome with MCF7 [21] and in the data set on MCF7 [22] was Active.
